Publication PMC5698592 (British Journal of Clinical Pharmacology, 2017)

Legend:
[1] = Phase I single-dose pharmacokinetics, plasma tramadol, M1 and celecoxib; assay type: in vivo, human; conditions: for AUC(0-inf): human, plasma, po, 100 mg
[2] = Phase I safety assessment; assay type: in vivo, human; conditions: fasted, healthy subjects; for Number of subjects who reported AEs / Number of subjects with AEs considered to be treatment‐related / Subjects who reported AEs / Subjects with AEs considered to be treatment‐related: after single oral dose of each treatment; for Abdominal pain, number of events / Abdominal pain, number of subjects / Dizziness, number of events / Dizziness, number of subjects / Dysphonia, number of events / Dysphonia, number of subjects / Euphoric mood, number of events / Euphoric mood, number of subjects / Fatigue, number of events / Fatigue, number of subjects / Feeling abnormal, number of events / Feeling abnormal, number of subjects / Headache, number of events / Headache, number of subjects / Nasal congestion, number of events / Nasal congestion, number of subjects / Nausea, number of events / Nausea, number of subjects / Rash, number of events / Rash, number of subjects / Rhinitis, number of events / Rhinitis, number of subjects / Rhinorrhoea, number of events / Rhinorrhoea, number of subjects / Somnolence, number of events / Somnolence, number of subjects / Vessel puncture site pain, number of events / Vessel puncture site pain, number of subjects / Vessel puncture site reaction, number of events / Vessel puncture site reaction, number of subjects: single oral dose
[3] = tramadol administered alone in its conventional form; cited from earlier work
[4] = after use of IR tramadol; cited from earlier work
mu‐opioid receptor = conditions: compared with tramadol itself; cited from earlier work
[5] = cited from earlier work
[6] = celecoxib alone vs. tramadol + celecoxib

Molecule | AUC(0-inf) [1] [ng·h/mL] | Number of subjects who reported AEs [2] | Number of subjects with AEs considered to be treatment‐related [2] | Subjects who reported AEs [2] [%] | Subjects with AEs considered to be treatment‐related [2] [%] | Abdominal pain, number of events [2] | Abdominal pain, number of subjects [2] | Dizziness, number of events [2] | Dizziness, number of subjects [2] | Dysphonia, number of events [2] | Dysphonia, number of subjects [2] | Euphoric mood, number of events [2] | Euphoric mood, number of subjects [2] | Fatigue, number of events [2] | Fatigue, number of subjects [2] | Feeling abnormal, number of events [2] | Feeling abnormal, number of subjects [2] | Headache, number of events [2] | Headache, number of subjects [2] | Nasal congestion, number of events [2] | other results
COc1cccc(C2(O)CCCCC2CN(C)C)c1 (stereo not drawn) [tramadol] | 3060 | 14 | 14 | 40.0 | 40.0 | 2 / 2 | 2 / 2 | 4 / 4 | 4 / 4 | 1 / 1 | 1 / 1 | 2 / 2 | 2 / 2 | 2 / 2 | 2 / 2 | 1 / 1 | 1 / 1 | 1 / 1 | 1 / 1 | 1 / 1 | Nasal congestion, number of subjects [2]: 1 / 1; Nausea, number of events [2]: 6; Nausea, number of subjects [2]: 4; Rash, number of events [2]: 0; Rash, number of subjects [2]: 0; Rhinitis, number of events [2]: 0; Rhinitis, number of subjects [2]: 0; Rhinorrhoea, number of events [2]: 0; Rhinorrhoea, number of subjects [2]: 0; Somnolence, number of events [2]: 10 / 10; Somnolence, number of subjects [2]: 10 / 10; Vessel puncture site pain, number of events [2]: 0; Vessel puncture site pain, number of subjects [2]: 0; Vessel puncture site reaction, number of events [2]: 1 / 1; Vessel puncture site reaction, number of subjects [2]: 1 / 1; elimination half‐life (T ½el) [3]: 5 to 6 h; subjects affected by the most common AEs (nausea and dizziness) [4]: > 10%
(+)‐O‐desmethyl‐tramadol [M1] | – | – | – | – | – | – | – | – | – | – | – | – | – | – | – | – | – | – | – | – | affinity for the mu‐opioid receptor (mu‐opioid receptor): much greater affinity
Cc1ccc(-c2cc(C(F)(F)F)nn2-c2ccc(S(N)(=O)=O)cc2)cc1 [celecoxib] | 3200 | 12 | 8 | 34.3 | 22.9 | 0 | 0 | 1 / 1 | 1 / 1 | 1 / 1 | 1 / 1 | 0 | 0 | 0 | 0 | 0 | 0 | 1 / 1 | 1 / 1 | 1 / 1 | Ratio of geometric LS means (90% CI), celecoxib AUC τ, Treatment 3 vs. Treatment 4 [1, 6]: 110.39 (105.68–115.32) %; Ratio of geometric LS means (90% CI), celecoxib AUC ∞, Treatment 3 vs. Treatment 4 [1, 6]: 103.64 (99.37–108.09) %; Ratio of geometric LS means (90% CI), celecoxib C max, Treatment 3 vs. Treatment 4 [1, 6]: 163.92 (146.56–183.35) %; Nasal congestion, number of subjects [2]: 1 / 1; Nausea, number of events [2]: 0; Nausea, number of subjects [2]: 0; Rash, number of events [2]: 1 / 1; Rash, number of subjects [2]: 1 / 1; Rhinitis, number of events [2]: 1 / 1; Rhinitis, number of subjects [2]: 1 / 1; Rhinorrhoea, number of events [2]: 1 / 1; Rhinorrhoea, number of subjects [2]: 1 / 1; Somnolence, number of events [2]: 5 / 5; Somnolence, number of subjects [2]: 5 / 5; Vessel puncture site pain, number of events [2]: 2 / 2; Vessel puncture site pain, number of subjects [2]: 2 / 2; Vessel puncture site reaction, number of events [2]: 1 / 1; Vessel puncture site reaction, number of subjects [2]: 1 / 1; time to peak plasma concentrations ([5]; after administration of commercially available formulation): 2 to 3 h; elimination half‐life ([5]; commercially available formulation): 8 to 12 h
